Tests used:
[1] = tested on: insomnia, anxiety or agitation; assay: Single-patient therapy Examples 1-10 (insomnia, anxiety, agitation); type: in vivo, human
Procedure: A person presents as suffering from maintenance insomnia for one year. They are started on oral A2-73 at 10 mg/day. […] They are currently maintained on 10 mg of A2-73 and is sleeping well. A person presents with anxiety of three years' duration. They are administered A2-73 at 20 mg oral per day every other day. […] They are maintained on this dosing schedule for 60 days. […] They are treated with 30 mg A2-73 oral daily for 30 days. […] They are currently maintained at that dosage and is not anxious. A person presents with MCI and reports maintenance insomnia for one year. They are started on oral A1-41 at 10 mg/day. […] They are currently maintained on 10 mg of A1-41 and is sleeping well. The patient is a person with diagnosed AD and reported anxiety of three years' duration. They are administered A19-144 at 20 mg oral per day every day for 90 days. […] They are chronically maintained on this dosing schedule. A person diagnosed with mild cognitive impairment presents as suffering from maintenance insomnia for one year. They are started on oral A2-73 at 50 mg/day. […] They are currently maintained on 50 mg of A2-73 daily and is sleeping well. A person diagnosed with Alzheimer's disease presents with insomnia/WASO and agitation and a systolic blood pressure of 145 mm Hg. They are started on oral A2-73 at 30 mg/day. […] They are also less agitated. Their results on all cognitive tests and HAM-D improve. They are currently maintained on 30 mg of A2-73 daily. A person diagnosed with Alzheimer's disease presents with insomnia/WASO and agitation. They are started on oral A2-73 at 100 mg/day. […] They are also less agitated. Their results on all cognitive tests and HAM-D improve. They are currently maintained on 100 mg of A2-73 every other day. A person diagnosed with Alzheimer's disease presents with insomnia/WASO and agitation. They are started on oral A19-144 at 50 mg/day. […] They are also less agitated. Their results on all cognitive tests and HAM-D improve. They are currently maintained on 50 mg of A19-144 daily. A person diagnosed with Alzheimer's disease presents with insomnia/WASO and agitation. They are started on oral A1-41 at 30 mg/day. […] They are also less agitated. Their results on all cognitive tests and HAM-D improve. They are currently maintained on 30 mg of A1-41 daily.

[2] = target: sigma-1 receptors (Homo sapiens, UniProt Q99720); settings: 'is believed to bind'; cited from earlier work
sigma-1 receptors, sequence (Q99720 whole entry): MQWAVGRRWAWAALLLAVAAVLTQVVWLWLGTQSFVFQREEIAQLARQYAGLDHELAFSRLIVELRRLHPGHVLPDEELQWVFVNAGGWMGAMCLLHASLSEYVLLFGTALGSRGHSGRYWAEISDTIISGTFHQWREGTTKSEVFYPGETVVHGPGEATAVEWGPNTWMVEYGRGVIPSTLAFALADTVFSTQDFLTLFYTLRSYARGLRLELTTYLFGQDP

[3] = tested on: muscarinic acetylcholine receptors; settings: 'is believed to bind'; cited from earlier work
[4] = Example 10: oral 30 mg/day, 60 days
[5] = Example 9: oral 50 mg/day, 30 days

SMILES	Sleep at follow up (maintenance insomnia) ([1]; Example 4: person with MCI, oral 10 mg/day, 30 days)	Agitation at follow up [1, 4]	Results on all cognitive tests and HAM-D [1, 4]	Sleep at follow up (insomnia/WASO) ([1]; Example 10: person with AD, oral 30 mg/day, 60 days)	Anxiety ([1]; Example 5: person with AD, 20 mg oral every day, after two days of dosing)	Agitation at follow up [1, 5]	Results on all cognitive tests and HAM-D [1, 5]	Sleep at follow up (insomnia/WASO) ([1]; Example 9: person with AD, oral 50 mg/day, 30 days)	Affinity for sigma-1 receptors [2]	Affinity for muscarinic acetylcholine receptors [3]
CN(C)CC1COC(c2ccccc2)(c2ccccc2)C1.Cl (stereo not shown) [A1-41, tetrahydro-N,N-dimethyl-5,5-diphenyl-3-furanmethanamine hydrochloride]	sleeping well	less agitated	improve	sleeping well through the night	–	–	–	–	–	–
CNCC1CCOC1(c1ccccc1)c1ccccc1.Cl (stereo not shown) [A19-144, 1-(2,2-diphenyltetrahydrofuran-3-yl)-N-methylmethanamine hydrochloride]	–	–	–	–	Resolution of the anxiety	less agitated	improve	sleeping well through the night	low micromolar range	low micromolar range

Source: patent US12285403B2, “A2-73 as a therapeutic for insomnia, anxiety and agitation” (Anavex Life Sciences Corp., priority 2016, dated 2025)
